In PMC8100298, “Histone deacetylase inhibitor resminostat in combination with sorafenib counteracts platelet-mediated pro-tumoral effects in hepatocellular carcinoma” (Scientific Reports, 2021):
Where two headings read alike, the source gives them in different places.

Assays:
Assay in all cases: Efficacy screening assay
Type in all cases: cell-based
[1] = tested on: OVCAR3; settings: OVCAR3, ovary
Description: (§1) The experiment was performed by Oncolead GmbH & Co. KG (Karlsfeld , Germany), based on a standardized screening procedure . Cell lines were purchased directly from the ATCC, NCI and DSMZ cell line c ollections. Cells used for the study had undergone less than 20 passages. To ensure the absence of potential contamination and wrong assignment, all cell lines were tested using a whole genome assay (Agilent, USA). All cell lines were grown as recommended by the suppliers and with addition of 100 U/mL penicillin G and 100 µg/mL; streptomycin. Cell growth and treatments were performed in Nunclon D 96 -well plates (NUNC, Germany). The optimal seeding density for each cell line was determined to ensure exponential growth for the duration of the experiment. All cells growing without anti-cancer agents were sub-conﬂuent by the end of the treatment, as determined by visual inspection.
(§2) After an initial 24 h pre-growth period, the compounds were added. The vehicle concentration […]
(§3) was 0.1% DMSO. After incubation at 37°C for 72 h, the culture medium was aspirated, and the cells were precipitated by the addition of 10% trichloroacetic acid (Sigma-Aldrich, Missouri, US). After overnight incubation at 4°C, the plates were washed three times with deionized water. The precipitates were then stained with SRB (0.4% wt/v sulforhodamine B solution in 1% acetic acid, Sigma-Aldrich, Missouri, US). Afterwards, the plates were washed six times with 1% acetic acid to remove unbound stain. After drying the plates at room temperature, the bound SRB was solubilized with 10 mM Tris base and the optical density was measured at 520 nm using a Victor2 plate reader (Perkin Elmer, Germany). Blank OD values were subtracted from mean OD values for each concentration. The nonlinear curve ﬁtting and EC50 calculations were per formed using XLﬁt and algorithm “205” (ID Business […]
(§4) For comparison of EC50 values in Figure 1F, one-way ANOVA with multiple comparison testing (Tukey) was performed. Multiplicity adjusted p -values for the EC50 with sorafenib versus resminostat for each cell line and comparison between cell lines for sorafenib are presented (95% confidence interval for significance testing). For comparison of EC50 data in Figure 2B, one-way ANOVA with multiple comparison testing (Tukey) was performed. Multiplicity adjusted p-values with 95% confidence interval was applied. For the invasion assays in Figure 4, one-way ANOVA with multiple comparison testing (Tukey) was performed. Multiplicity adjusted p-values with 95% confidence interval was applied. The adjusted p-values comparing vehicle control without vs. with platelets and compound

[2] = tested on: SNB75; settings: SNB75, brain
Description: as §1, §2, §3, §4

[3] = tested on: MT3; settings: MT3, breast
Description: as §1, §2, §3, §4

[4] = tested on: NCIH460; settings: NCIH460, lung
Description: as §1, §2, §3, §4

[5] = tested on: SKBR3; settings: SKBR3, breast
Description: as §1, §2, §3, §4

[6] = tested on: CASKI; settings: 72 h, cervix
Description: as §1, §2, §3, §4

[7] = tested on: PANC1; settings: PANC1, pancreas
Description: as §1, §2, §3, §4

[8] = tested on: PC3; settings: Homo sapiens, PC-3, PC3, prostate, 72 h
Description: as §1, §2, §3, §4

[9] = tested on: U2OS; settings: 72 h, bone
Description: as §1, §2, §3, §4

[10] = tested on: HELA; settings: 72 h, cervix
Description: as §1, §2, §3, §4

[11] = tested on: T24; settings: T24, bladder
Description: as §1, §2, §3, §4

[12] = tested on: HCT116; settings: HCT116, colon
Description: as §1, §2, §3, §4

[13] = tested on: SKNSH; settings: 72 h, brain
Description: as §1, §2, §3, §4

[14] = tested on: SKMEL5; settings: SKMEL5, skin
Description: as §1, §2, §3, §4

[15] = tested on: EJ28; settings: EJ28, bladder
Description: as §1, §2, §3, §4

[16] = tested on: SF268; settings: SF268, brain
Description: as §1, §2, §3, §4

CN(C)Cc1ccc(S(=O)(=O)n2ccc(/C=C/C(=O)NO)c2)cc1 [resminostat, Resminostat]
EC50 ([1]; Homo sapiens, OVCAR-3, 72 h, log of EC50, negative, read-out: log(EC50) (converted)): 3550 nM | EC50 ([1]; Homo sapiens, OVCAR-3, 72 h, read-out: EC50): 3550 nM | EC50 ([1]; 72 h, read-out: EC50): 3550 nM | EC50 ([2]; Homo sapiens, SNB-75, 72 h, log of EC50, negative, read-out: log(EC50) (converted)): 6760 nM | EC50 ([2]; Homo sapiens, SNB-75, 72 h, read-out: EC50): 6750 nM | EC50 ([2]; 72 h, read-out: EC50): 6750 nM | EC50 ([3]; 72 h, read-out: EC50): 1890 nM | EC50 ([3]; MT-3, 72 h, log of EC50, negative, read-out: log(EC50) (converted)): 1910 nM | EC50 ([3]; MT-3, 72 h, read-out: EC50): 1890 nM | EC50 ([4]; Homo sapiens, NCI-H460, 72 h, log of EC50, negative, read-out: log(EC50) (converted)): 2140 nM | EC50 ([4]; Homo sapiens, NCI-H460, 72 h, read-out: EC50): 2120 nM | EC50 ([4]; 72 h, read-out: EC50): 2120 nM | EC50 ([5]; Homo sapiens, SK-BR-3, 72 h, log of EC50, negative, read-out: log(EC50) (converted)): 933 nM | EC50 ([5]; Homo sapiens, SK-BR-3, 72 h, read-out: EC50): 930 nM | EC50 ([5]; 72 h, read-out: EC50): 930 nM | EC50 ([6]; Homo sapiens, Ca-Ski, log of EC50, negative, read-out: log(EC50) (converted)): 2630 nM | EC50 ([6]; Homo sapiens, Ca-Ski, read-out: EC50): 2630 nM | EC50 ([6]; read-out: EC50): 2630 nM | EC50 ([7]; Homo sapiens, PANC-1, 72 h, log of EC50, negative, read-out: log(EC50) (converted)): 6760 nM | EC50 ([7]; Homo sapiens, PANC-1, 72 h, read-out: EC50): 6790 nM | EC50 ([7]; 72 h, read-out: EC50): 6790 nM | EC50 ([8]; log of EC50, negative, read-out: log(EC50) (converted)): 1700 nM | EC50 ([8]; read-out: EC50): 1690 nM | EC50 ([9]; Homo sapiens, log of EC50, negative, read-out: log(EC50) (converted)): 1170 nM | EC50 ([9]; Homo sapiens, read-out: EC50): 1160 nM | EC50 ([9]; read-out: EC50): 1160 nM | EC50 ([10]; Homo sapiens, HeLa, log of EC50, negative, read-out: log(EC50) (converted)): 3310 nM | EC50 ([10]; Homo sapiens, HeLa, read-out: EC50): 3320 nM | EC50 ([10]; read-out: EC50): 3320 nM | EC50 ([11]; Homo sapiens, T-24, 72 h, log of EC50, negative, read-out: log(EC50) (converted)): 933 nM | EC50 ([11]; Homo sapiens, T-24, 72 h, read-out: EC50): 937 nM | EC50 ([11]; 72 h, read-out: EC50): 940 nM | EC50 ([12]; 72 h, read-out: EC50): 790 nM | EC50 ([12]; Homo sapiens, HCT-116, 72 h, log of EC50, negative, read-out: log(EC50) (converted)): 794 nM | EC50 ([12]; Homo sapiens, HCT-116, 72 h, read-out: EC50): 792 nM | EC50 ([13]; Homo sapiens, SK-N-SH, log of EC50, negative, read-out: log(EC50) (converted)): 3630 nM | EC50 ([13]; Homo sapiens, SK-N-SH, read-out: EC50): 3670 nM | EC50 ([13]; read-out: EC50): 3670 nM | EC50 ([14]; Homo sapiens, SK-MEL-5, 72 h, log of EC50, negative, read-out: log(EC50) (converted)): 1700 nM | EC50 ([14]; Homo sapiens, SK-MEL-5, 72 h, read-out: EC50): 1710 nM | EC50 ([14]; 72 h, read-out: EC50): 1710 nM | EC50 ([15]; 72 h, read-out: EC50): 4590 nM | EC50 ([15]; Homo sapiens, EJ-28, 72 h, log of EC50, negative, read-out: log(EC50) (converted)): 4570 nM | EC50 ([15]; Homo sapiens, EJ-28, 72 h, read-out: EC50): 4590 nM | EC50 ([16]; Homo sapiens, SF-268, 72 h, log of EC50, negative, read-out: log(EC50) (converted)): 2190 nM | EC50 ([16]; Homo sapiens, SF-268, 72 h, read-out: EC50): 2190 nM | EC50 ([16]; 72 h, read-out: EC50): 2190 nM
